Earlier results in patent US12648920B2, “Methods of administering glutathione precursors” (Neuronasal, Inc., priority 2020, dated 2026).

Conditions: oral

orally bioavailable: < 10%
SMILES: CC(=O)N[C@@H](CS)C(=O)O [NAC, N-acetylcysteine]
